14 compounds from patent publication US12371428B2 (Exelixis, Inc., priority 2019, dated 2025) can be followed below.

In general, IC50 refers to the concentration at which inhibition is half-maximal.

The target of assay [1] is Human KDR (residues 790-1356) (Homo sapiens (Human), UniProt P35968). Nature of the assay: Human KDR kinase assay, HTRF KinEase (Example B-2). The format is biochemical. As to the method:
(§1) Kinase activity and compound inhibition were also investigated using the HTRF® KinEase assay (Cisbio Cat #62TKOPEB) per manufacturer's instructions. In short, compounds were delivered in 300 nL volumes at 10 different concentrations in DMSO (3% final) to empty 384-well assay plates (Corning cat #3824). A mixture of enzyme, […] biotynlated peptide substrate, and buffer in 10 μL volume was added. The assay was started upon the addition of ATP (at Km). The 10 μL reaction was incubated at room temperature. The reaction was stopped upon the addition of detection buffer containing streptavidin-XL665 ([…]) and TK antibody-Eu3+([…]). After a 60 min incubation at room temperature, the fluorescence at 665 nm and 620 nm was read on an Envision microplate reader (Perkin Elmer).
(§2) Kinase activity normalized to DMSO (100% activity) and reference compound at […] and (0% activity) was calculated using the fluorescence ratio […]. IC50 values were calculated by nonlinear regression analysis using a 4-parameter logistic curve fit in ActivityBase XE (IDBS).
Example B-2: Human KDR (residues 790-1356; CarnaBio, 0.1 ng/well) was also incubated with enzymatic buffer (Cisbio) supplemented with 5 mM MgCl2, 1 mM MnCl2, and 1 mM DTT. The mixture was added to the pre-plated compounds. The reaction was initiated upon addition of ATP at Km (4.0 μM). The reaction was incubated at room temperature for 40 min and stopped upon the addition of SA-XL665 and TK-antibody both diluted in EDTA-containing kinase detection buffer (Cisbio). The kinase activity was calculated as stated above and the IC50 values were reported.

Assay [2] concerns the target Human MER (residues 528-999) (Homo sapiens (Human), UniProt Q12866). The assay can be described thus: Human Mer kinase assay, HTRF KinEase (Example C-2). The format is biochemical. The protocol: as §1, §2
Example C-2: Human MER (residues 528-999; CarnaBio, 1 ng/well) was also incubated with enzymatic buffer (Cisbio) supplemented with 5 mM MgCl2 and 1 mM DTT. The mixture was added to the pre-plated compounds. The reaction was initiated upon addition of ATP at Km (40 μM). The reaction was incubated at room temperature for 60 min and stopped upon the addition of SA-XL665 and TK-antibody both diluted in EDTA-containing kinase detection buffer (Cisbio). The kinase activity was calculated as stated above and the IC50 values were reported.

Assay [3] addresses Human MET (residues 956-1390) (Homo sapiens (Human), UniProt P08581). The assay can be described thus: Human Met kinase assay, HTRF KinEase (Example D-2). The format is biochemical. The settings on record: protocol of Example D-2 (other compounds); read-out: c-Met IC50. The protocol:
as §1, §2
Example D-2: Human MET (residues 956-1390; CarnaBio, 0.1 ng/well) was also incubated with enzymatic buffer (Cisbio) supplemented with 5 mM MgCl2, 1 mM DTT and 1 mM MnCl2. The mixture was added to the pre-plated compounds. […] The reaction was incubated at room temperature for 40 min and stopped upon the addition of SA-XL665 and TK-antibody both diluted in EDTA-containing kinase detection buffer (Cisbio). The kinase activity was calculated as stated above and the IC50 values were reported.
For orientation: TR-FRET usually uses a lanthanide donor and a delayed reading to cut background.

Assay [4] concerns the target Met (phospho-Met, HGF-stimulated PC-3 prostate cancer cells) (Homo sapiens (Human), UniProt P08581). The assay can be described thus: Met autophosphorylation ELISA in PC-3 cells (Example F). The settings on record: cellular activity; Met autophosphorylation ELISA in PC-3 cells; read-out: c-Met IC50. The format is cell-based. An outline of the steps:
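Compounds were tested on HGF-stimulated PC-3 cells. After 24 h culture and 3 h serum starvation, cells got compound for 1 h and 100 ng/mL HGF for 10 min, and Met tyrosine phosphorylation was measured by ELISA.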
Background: In an ELISA, binding on a coated surface is turned into a signal by an enzyme label.

Assay [5] addresses KDR (phospho-KDR, VEGF165-stimulated HUVEC cells) (Homo sapiens (Human), UniProt P35968). Nature of the assay: KDR autophosphorylation ELISA in HUVEC cells (Example G). The settings on record: cellular activity; KDR autophosphorylation ELISA in HUVEC cells. The format is cell-based. An outline of the steps: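 IC50 values derive from nonlinear curve fitting of phospho-KDR levels measured by ELISA and interpolated from a phosphoprotein standard. Beforehand, starved HUVECs received compound (0.3% DMSO vehicle) for one hour and were activated with VEGF165 at 100 ng/mL for 5 min.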

The target of assay [6] is Mer (phospho-Mer, MERTK-transfected 293A cells) (Homo sapiens (Human), UniProt Q12866). Nature of the assay: Mer autophosphorylation ELISA in transient transfected 293A cells (Example H). The format is cell-based. The settings on record: cellular activity; Mer autophosphorylation ELISA in transient transfected 293A cells. An outline of the steps: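 Inhibition of cellular Mer autophosphorylation is determined in 293A cells transiently expressing human MERTK after 1 h compound exposure (8 concentrations, serum-free, 0.3% DMSO). Phospho-Mer in clarified lysates is measured by ELISA, with DMSO and reference-inhibitor wells defining the 100% and 0% activity limits.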

Setting [7] is: protocol of Example B-2 (other compounds).
[8] abbreviates: protocol of Example C-2 (other compounds).

Structures are written as SMILES. Counter-ions that a name gives are not always drawn. A value given as a limit tells only on which side of the number the result lay.

Sequence of KDR (phospho-KDR, VEGF165-stimulated HUVEC cells) (P35968 20-1356): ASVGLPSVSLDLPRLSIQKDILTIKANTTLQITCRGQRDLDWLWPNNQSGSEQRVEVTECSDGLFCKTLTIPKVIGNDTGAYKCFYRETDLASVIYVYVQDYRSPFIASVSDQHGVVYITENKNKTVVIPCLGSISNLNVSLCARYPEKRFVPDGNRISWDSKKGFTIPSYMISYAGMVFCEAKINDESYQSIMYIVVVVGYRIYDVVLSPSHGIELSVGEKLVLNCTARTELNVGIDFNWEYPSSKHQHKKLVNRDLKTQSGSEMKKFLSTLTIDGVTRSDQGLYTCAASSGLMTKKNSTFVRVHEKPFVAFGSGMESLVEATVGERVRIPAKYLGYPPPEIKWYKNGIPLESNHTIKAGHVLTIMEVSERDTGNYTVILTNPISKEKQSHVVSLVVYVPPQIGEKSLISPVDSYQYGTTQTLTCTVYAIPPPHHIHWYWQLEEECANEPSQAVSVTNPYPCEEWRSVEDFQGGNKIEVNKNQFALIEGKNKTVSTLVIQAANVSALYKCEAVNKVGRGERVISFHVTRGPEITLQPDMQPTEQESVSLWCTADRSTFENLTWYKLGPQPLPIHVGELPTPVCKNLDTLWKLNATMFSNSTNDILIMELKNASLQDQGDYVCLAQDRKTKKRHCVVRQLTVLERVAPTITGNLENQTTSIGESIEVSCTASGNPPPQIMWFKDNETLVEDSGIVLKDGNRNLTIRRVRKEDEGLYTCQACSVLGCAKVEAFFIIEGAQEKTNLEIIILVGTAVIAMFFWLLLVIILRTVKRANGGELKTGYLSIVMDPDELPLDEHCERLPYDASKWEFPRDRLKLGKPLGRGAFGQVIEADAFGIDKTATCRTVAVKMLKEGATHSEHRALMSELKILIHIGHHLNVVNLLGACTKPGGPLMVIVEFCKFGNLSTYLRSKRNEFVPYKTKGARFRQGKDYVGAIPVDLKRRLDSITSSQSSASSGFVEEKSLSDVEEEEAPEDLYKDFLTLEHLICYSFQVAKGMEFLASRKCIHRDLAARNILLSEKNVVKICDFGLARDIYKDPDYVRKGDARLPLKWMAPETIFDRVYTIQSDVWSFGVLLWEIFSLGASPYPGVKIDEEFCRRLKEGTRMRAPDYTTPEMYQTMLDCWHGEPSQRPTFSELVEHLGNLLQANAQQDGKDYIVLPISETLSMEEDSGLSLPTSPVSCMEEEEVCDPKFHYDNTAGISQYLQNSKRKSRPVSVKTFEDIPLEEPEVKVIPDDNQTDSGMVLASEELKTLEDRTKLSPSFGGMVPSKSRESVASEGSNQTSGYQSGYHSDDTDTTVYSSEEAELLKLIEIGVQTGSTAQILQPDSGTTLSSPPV
Sequence of Human MET (residues 956-1390) (P08581 956-1390): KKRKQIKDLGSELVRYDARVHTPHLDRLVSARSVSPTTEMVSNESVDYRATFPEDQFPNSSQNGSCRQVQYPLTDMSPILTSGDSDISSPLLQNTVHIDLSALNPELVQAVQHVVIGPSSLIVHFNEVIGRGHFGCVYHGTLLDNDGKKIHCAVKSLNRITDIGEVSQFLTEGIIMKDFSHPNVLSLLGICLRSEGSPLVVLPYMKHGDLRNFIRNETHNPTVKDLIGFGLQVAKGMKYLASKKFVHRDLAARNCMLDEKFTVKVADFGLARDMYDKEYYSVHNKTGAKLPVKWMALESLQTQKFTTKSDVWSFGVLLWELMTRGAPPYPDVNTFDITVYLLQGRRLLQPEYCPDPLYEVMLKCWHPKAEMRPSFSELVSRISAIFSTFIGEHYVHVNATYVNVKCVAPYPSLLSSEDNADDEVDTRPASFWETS
Sequence of Mer (phospho-Mer, MERTK-transfected 293A cells) (Q12866 21-999): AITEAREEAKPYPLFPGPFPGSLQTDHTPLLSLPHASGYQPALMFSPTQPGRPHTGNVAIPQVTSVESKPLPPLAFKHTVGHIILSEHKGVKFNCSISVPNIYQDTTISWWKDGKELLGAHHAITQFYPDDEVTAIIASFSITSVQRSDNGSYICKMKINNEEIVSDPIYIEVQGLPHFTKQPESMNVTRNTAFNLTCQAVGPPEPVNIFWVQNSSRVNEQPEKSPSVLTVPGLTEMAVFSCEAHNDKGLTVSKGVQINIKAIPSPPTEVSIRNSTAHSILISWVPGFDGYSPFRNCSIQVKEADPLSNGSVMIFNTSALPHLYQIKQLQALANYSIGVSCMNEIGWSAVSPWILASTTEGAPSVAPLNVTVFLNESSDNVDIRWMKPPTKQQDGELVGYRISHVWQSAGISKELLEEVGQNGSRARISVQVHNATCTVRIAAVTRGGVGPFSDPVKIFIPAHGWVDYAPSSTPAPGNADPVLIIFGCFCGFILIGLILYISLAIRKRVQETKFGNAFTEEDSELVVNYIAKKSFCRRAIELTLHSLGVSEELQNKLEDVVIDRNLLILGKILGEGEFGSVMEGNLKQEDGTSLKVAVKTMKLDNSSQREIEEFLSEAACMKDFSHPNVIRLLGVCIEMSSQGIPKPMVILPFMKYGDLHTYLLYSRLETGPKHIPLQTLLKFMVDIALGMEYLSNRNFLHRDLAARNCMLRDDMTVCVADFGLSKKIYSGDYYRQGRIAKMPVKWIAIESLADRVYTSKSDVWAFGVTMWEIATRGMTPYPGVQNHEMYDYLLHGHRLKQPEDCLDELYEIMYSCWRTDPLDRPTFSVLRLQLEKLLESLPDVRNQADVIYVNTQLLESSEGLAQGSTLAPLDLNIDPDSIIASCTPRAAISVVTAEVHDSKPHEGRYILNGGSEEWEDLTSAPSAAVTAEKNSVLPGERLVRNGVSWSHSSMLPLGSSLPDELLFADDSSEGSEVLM
Sequence of Human KDR (residues 790-1356) (P35968 790-1356): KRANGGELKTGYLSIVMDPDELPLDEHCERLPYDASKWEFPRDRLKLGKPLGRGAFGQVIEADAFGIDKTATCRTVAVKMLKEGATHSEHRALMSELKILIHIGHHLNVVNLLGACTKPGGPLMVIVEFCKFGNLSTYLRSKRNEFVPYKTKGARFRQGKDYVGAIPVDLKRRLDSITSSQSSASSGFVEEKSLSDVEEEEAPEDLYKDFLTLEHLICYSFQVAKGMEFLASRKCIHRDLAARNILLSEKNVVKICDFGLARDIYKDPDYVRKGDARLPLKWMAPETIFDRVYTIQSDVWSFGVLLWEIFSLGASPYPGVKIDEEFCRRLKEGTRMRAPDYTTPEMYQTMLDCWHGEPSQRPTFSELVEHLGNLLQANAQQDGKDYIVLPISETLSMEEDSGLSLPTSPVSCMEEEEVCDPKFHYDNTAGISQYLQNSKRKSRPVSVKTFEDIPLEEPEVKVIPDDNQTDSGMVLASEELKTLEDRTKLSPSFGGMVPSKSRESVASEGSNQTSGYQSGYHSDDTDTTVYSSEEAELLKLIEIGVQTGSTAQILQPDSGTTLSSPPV
Sequence of Human MER (residues 528-999) (Q12866 528-999): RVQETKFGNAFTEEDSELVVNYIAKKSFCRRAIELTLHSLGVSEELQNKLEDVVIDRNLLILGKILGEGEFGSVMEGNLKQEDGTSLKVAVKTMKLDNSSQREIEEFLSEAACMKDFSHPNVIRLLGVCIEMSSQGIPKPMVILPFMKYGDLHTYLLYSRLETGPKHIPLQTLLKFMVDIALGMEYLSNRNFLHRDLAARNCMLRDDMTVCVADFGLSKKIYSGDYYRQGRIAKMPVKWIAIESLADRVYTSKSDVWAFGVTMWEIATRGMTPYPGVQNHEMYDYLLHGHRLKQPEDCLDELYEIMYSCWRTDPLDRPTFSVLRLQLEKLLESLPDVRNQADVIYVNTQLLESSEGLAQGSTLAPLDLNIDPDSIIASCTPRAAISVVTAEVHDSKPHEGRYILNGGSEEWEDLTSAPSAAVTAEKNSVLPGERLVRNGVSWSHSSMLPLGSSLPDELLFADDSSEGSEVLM

Regarding `COc1cc2nccc(Oc3ccc(NC(=O)C4=C5CCCN5CC(c5ccc(F)cc5)C4=O)cc3F)c2nc1OC` (single isomer, unassigned; enantiomer 2) [Compound 375, N-[4-[(6,7-dimethoxy-1,5-naphthyridin-4-yl)oxy]-3-fluorophenyl]-6-(4-fluorophenyl)-7-oxo-2,3,5,6-tetrahydro-1H-indolizine-8-carboxamide, enantiomer 2], the IC50 in assay [1] (setting [7]) is above 300 nM; in assay [2] (setting [8]), below 100 nM; in assay [3] it was below 100 nM.
With `COc1ccc(-c2cn(C)cc(C(=O)Nc3ccc(Oc4ccnc5cc(OC)c(OC)nc45)c(F)c3)c2=O)cc1` [Compound 34, N-[4-[(6,7-Dimethoxy-1,5-naphthyridin-4-yl)oxy]-3-fluorophenyl]-5-(4-methoxyphenyl)-1-methyl-4-oxopyridine-3-carboxamide hydrochloride], the 50% inhibitory concentration (IC50) was below 100 nM in assay [1] (setting [7]), below 100 nM in assay [2] (setting [8]) and 100 to 300 nM in assay [3].
As to `COc1ccc2nccc(Oc3ccc(NC(=O)c4c[nH]c(=O)n(-c5ccc(F)cc5)c4=O)cc3F)c2n1` [Compound 103, N-[3-Fluoro-4-[(6-methoxy-1,5-naphthyridin-4-yl)oxy]phenyl]-3-(4-fluorophenyl)-2,4-dioxo-1H-pyrimidine-5-carboxamide], the IC50 in assay [1] (setting [7]) was above 300 nM; in assay [2] (setting [8]), below 100 nM; in assay [3], below 100 nM.
Take `Cc1ncc(C(=O)Nc2ccc(Oc3ccnc4cc(C(F)(F)F)cnc34)cc2)c(O)c1-c1ccc(F)cc1` [Compound 150, 5-(4-Fluorophenyl)-4-hydroxy-6-methyl-N-[4-[[7-(trifluoromethyl)-1,5-naphthyridin-4-yl]oxy]phenyl]pyridine-3-carboxamide]: the half-inhibitory concentration (IC50) in assay [1] (setting [7]) is above 300 nM; in assay [2] (setting [8]) it was below 100 nM; in assay [3] it was below 100 nM.
Turning to `Cc1c(-c2ccc(F)cc2)c(=O)c(C(=O)Nc2ccc(Oc3ccnc4cc(C(F)(F)F)cnc34)c(F)c2)cn1C(C)C` [Compound 152, 5-(4-Fluorophenyl)-N-[3-fluoro-4-[[7-(trifluoromethyl)-1,5-naphthyridin-4-yl]oxy]phenyl]-6-methyl-4-oxo-1-propan-2-ylpyridine-3-carboxamide], the IC50 in assay [1] (setting [7]), in assay [2] (setting [8]) and in assay [3] was above 300 nM in each case.
Consider `CC(C)n1cc(C(=O)Nc2ccc(Oc3ccnc4cc(F)cnc34)c(F)c2)c(=O)c(-c2ccc(F)cc2)c1` [Compound 161, N-[3-Fluoro-4-[(7-fluoro-1,5-naphthyridin-4-yl)oxy]phenyl]-5-(4-fluorophenyl)-4-oxo-1-propan-2-ylpyridine-3-carboxamide], for which the IC50 in assay [1] (setting [7]), in assay [2] (setting [8]) and in assay [3] was below 100 nM in each case.
With `COc1ccc2nccc(Oc3ccc(NC(=O)c4c[nH]c(=O)n(-c5ccc(F)cc5)c4=O)cc3)c2n1` [Compound 339, 3-(4-fluorophenyl)-N-[4-[(6-methoxy-1,5-naphthyridin-4-yl)oxy]phenyl]-2,4-dioxo-1H-pyrimidine-5-carboxamide], the IC50 in assay [1] (setting [7]) is above 300 nM; in assay [2] (setting [8]), 100 to 300 nM; in assay [3], 100 to 300 nM.
As for `COc1cc2nccc(Oc3ccc(NC(=O)c4ccnn(-c5ccc(F)cc5C)c4=O)cc3F)c2nc1OC` [Compound 527, N-[4-[(6,7-dimethoxy-1,5-naphthyridin-4-yl)oxy]-3-fluorophenyl]-2-(4-fluoro-2-methylphenyl)-3-oxopyridazine-4-carboxamide], the IC50 in assay [1] (protocol of Example B-2) is 100 to 300 nM; in assay [2] (protocol of Example C-2), below 100 nM; in assay [4] it was below 100 nM; in assay [5], below 100 nM; in assay [6], below 100 nM.
Take `COc1cc2nccc(Oc3ccc(NC(=O)c4ccnn(-c5ccc(F)cc5C)c4=O)cc3)c2nc1OC` [Compound 528, N-[4-[(6,7-dimethoxy-1,5-naphthyridin-4-yl)oxy]phenyl]-2-(4-fluoro-2-methylphenyl)-3-oxopyridazine-4-carboxamide]: the IC50 is 100 to 300 nM in assay [1] (protocol of Example B-2); below 100 nM in assay [2] (protocol of Example C-2); below 100 nM in assay [4]; below 100 nM in assay [5]; below 100 nM in assay [6].
Regarding `COc1cnc2c(Oc3ccc(NC(=O)c4ccnn(-c5ccc(F)cc5C)c4=O)cc3F)ccnc2c1` [Compound 529, N-[3-fluoro-4-[(7-methoxy-1,5-naphthyridin-4-yl)oxy]phenyl]-2-(4-fluoro-2-methylphenyl)-3-oxopyridazine-4-carboxamide], the IC50 in assay [1] (protocol of Example B-2) was above 300 nM; in assay [2] (protocol of Example C-2), 100 to 300 nM; in assay [4], below 100 nM; in assay [5], below 100 nM; in assay [6], below 100 nM.
For `CNC(=O)c1c(-c2ccc(F)cc2)c(=O)c(C(=O)Nc2ccc(Oc3ccnc4cc(OC)c(OC)nc34)c(F)c2)cn1C` [Compound 563, 5-N-[4-[(6,7-Dimethoxy-1,5-naphthyridin-4-yl)oxy]-3-fluorophenyl]-3-(4-fluorophenyl)-2-N,1-dimethyl-4-oxopyridine-2,5-dicarboxamide], the 50% inhibitory concentration (IC50) in assay [1] (protocol of Example B-2) is above 300 nM; in assay [2] (protocol of Example C-2), below 100 nM; in assay [4], below 100 nM; in assay [5], above 300 nM; in assay [6], below 100 nM.
In the case of `COc1cnc2c(Oc3ccc(NC(=O)c4nn(C(C)C)c(C)c(-c5ccc(F)cc5)c4=O)cc3F)ccnc2c1` [Compound 566, N-[3-Fluoro-4-[(7-methoxy-1,5-naphthyridin-4-yl)oxy]phenyl]-5-(4-fluorophenyl)-6-methyl-4-oxo-1-propan-2-ylpyridazine-3-carboxamide], the IC50 is above 300 nM in assay [1] (protocol of Example B-2); below 100 nM in assay [2] (protocol of Example C-2); below 100 nM in assay [4]; above 300 nM in assay [5]; below 100 nM in assay [6].
In the case of `COc1cnc2c(Oc3ccc(NC(=O)c4nnc(C)c(-c5ccc(F)cc5)c4OC(C)C)cc3F)ccnc2c1` [Compound 567, N-[3-Fluoro-4-[(7-methoxy-1,5-naphthyridin-4-yl)oxy]phenyl]-5-(4-fluorophenyl)-6-methyl-4-propan-2-yloxypyridazine-3-carboxamide], the IC50 in assay [1] (protocol of Example B-2), in assay [2] (protocol of Example C-2), in assay [4], in assay [5] and in assay [6] was below 100 nM in each case.
For the compound `CCOc1c(C(=O)Nc2ccc(Oc3ccnc4cc(OC)c(OC)nc34)c(F)c2)nnc(C)c1-c1ccc(F)cc1` [Compound 569, N-[4-[(6,7-Dimethoxy-1,5-naphthyridin-4-yl)oxy]-3-fluorophenyl]-4-ethoxy-5-(4-fluorophenyl)-6-methylpyridazine-3-carboxamide], the IC50 in assay [1] (protocol of Example B-2), in assay [2] (protocol of Example C-2), in assay [4], in assay [5] and in assay [6] was below 100 nM throughout.
